Results published in ChEMBL document CHEMBL5291721, “A preclinical secondary pharmacology resource illuminates target-adverse drug reaction associations of marketed drugs” (Nat Commun, 2023).

What was measured:
[1] = target: T1, Thromboxane A2 receptor (Homo sapiens, UniProt P21731); format: functional, cell-based
T1 sequence (P21731 whole entry): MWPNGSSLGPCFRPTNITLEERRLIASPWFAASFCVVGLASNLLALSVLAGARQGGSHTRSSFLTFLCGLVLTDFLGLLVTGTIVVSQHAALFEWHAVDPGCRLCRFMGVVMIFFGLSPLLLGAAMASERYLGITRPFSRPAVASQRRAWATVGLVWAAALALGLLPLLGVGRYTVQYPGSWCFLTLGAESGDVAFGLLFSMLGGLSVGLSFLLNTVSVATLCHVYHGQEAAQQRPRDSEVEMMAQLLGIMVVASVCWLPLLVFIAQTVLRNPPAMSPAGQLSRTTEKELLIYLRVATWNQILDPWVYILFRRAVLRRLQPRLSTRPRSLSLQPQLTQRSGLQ

[2] = target: cGMP-inhibited 3',5'-cyclic phosphodiesterase 3A (Homo sapiens, UniProt Q14432); format: functional
Sequence of cGMP-inhibited 3',5'-cyclic phosphodiesterase 3A (Q14432 whole entry): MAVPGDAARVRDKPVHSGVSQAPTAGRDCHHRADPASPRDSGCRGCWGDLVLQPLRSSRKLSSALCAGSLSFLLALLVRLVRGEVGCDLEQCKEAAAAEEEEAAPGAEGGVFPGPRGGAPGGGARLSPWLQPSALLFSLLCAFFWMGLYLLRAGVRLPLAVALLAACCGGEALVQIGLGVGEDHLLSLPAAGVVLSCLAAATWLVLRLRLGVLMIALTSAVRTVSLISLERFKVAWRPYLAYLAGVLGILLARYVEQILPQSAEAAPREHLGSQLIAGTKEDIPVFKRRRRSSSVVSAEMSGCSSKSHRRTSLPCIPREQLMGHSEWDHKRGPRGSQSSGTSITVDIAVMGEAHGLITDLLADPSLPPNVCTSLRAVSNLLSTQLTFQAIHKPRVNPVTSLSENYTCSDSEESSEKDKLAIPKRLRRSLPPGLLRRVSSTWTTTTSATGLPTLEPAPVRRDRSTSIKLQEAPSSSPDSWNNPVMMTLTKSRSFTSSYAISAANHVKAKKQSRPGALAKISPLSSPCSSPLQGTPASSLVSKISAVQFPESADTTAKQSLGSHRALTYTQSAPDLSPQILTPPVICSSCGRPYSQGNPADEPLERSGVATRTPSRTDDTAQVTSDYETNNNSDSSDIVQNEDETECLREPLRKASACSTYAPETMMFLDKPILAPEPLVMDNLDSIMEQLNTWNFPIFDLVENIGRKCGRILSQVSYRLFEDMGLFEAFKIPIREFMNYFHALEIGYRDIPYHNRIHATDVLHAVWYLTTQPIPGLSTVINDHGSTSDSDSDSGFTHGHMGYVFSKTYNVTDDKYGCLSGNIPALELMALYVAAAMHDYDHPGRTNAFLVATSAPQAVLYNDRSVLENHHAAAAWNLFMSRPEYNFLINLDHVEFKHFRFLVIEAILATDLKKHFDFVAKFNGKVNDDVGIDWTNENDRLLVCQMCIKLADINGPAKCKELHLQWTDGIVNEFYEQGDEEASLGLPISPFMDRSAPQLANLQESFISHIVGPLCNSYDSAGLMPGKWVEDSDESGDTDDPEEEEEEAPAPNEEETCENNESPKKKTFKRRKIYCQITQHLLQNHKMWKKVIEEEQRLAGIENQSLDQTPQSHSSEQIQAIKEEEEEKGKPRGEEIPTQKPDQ

[3] = target: 3',5'-cyclic-AMP phosphodiesterase 4A (Homo sapiens, UniProt P27815); format: functional
Sequence of 3',5'-cyclic-AMP phosphodiesterase 4A (P27815 whole entry): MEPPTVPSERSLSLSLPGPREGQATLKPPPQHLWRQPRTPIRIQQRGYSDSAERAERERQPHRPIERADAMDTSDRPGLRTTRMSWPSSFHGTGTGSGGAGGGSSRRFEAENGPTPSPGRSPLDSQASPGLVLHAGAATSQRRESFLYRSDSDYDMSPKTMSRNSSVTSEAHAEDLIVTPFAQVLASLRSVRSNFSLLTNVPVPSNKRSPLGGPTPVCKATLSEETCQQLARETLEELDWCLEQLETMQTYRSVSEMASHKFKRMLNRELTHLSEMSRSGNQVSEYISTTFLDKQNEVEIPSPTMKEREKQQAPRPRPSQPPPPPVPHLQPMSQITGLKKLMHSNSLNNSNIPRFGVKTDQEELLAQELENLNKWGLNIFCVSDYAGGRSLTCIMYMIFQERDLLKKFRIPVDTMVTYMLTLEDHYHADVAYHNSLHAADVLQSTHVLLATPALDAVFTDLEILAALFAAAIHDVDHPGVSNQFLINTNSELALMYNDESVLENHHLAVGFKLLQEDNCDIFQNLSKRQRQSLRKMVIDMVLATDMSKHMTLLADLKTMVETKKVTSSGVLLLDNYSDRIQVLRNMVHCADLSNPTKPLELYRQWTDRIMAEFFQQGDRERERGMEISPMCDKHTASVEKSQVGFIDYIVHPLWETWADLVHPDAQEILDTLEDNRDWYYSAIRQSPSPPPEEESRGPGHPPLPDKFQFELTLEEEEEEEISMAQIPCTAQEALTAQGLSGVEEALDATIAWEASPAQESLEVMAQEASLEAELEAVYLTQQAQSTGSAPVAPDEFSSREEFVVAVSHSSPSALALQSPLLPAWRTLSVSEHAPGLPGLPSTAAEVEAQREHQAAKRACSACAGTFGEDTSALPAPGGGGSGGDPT

[4] = target: T2, Amine oxidase [flavin-containing] A (Homo sapiens, UniProt P21397); format: functional
T2 sequence (P21397 whole entry): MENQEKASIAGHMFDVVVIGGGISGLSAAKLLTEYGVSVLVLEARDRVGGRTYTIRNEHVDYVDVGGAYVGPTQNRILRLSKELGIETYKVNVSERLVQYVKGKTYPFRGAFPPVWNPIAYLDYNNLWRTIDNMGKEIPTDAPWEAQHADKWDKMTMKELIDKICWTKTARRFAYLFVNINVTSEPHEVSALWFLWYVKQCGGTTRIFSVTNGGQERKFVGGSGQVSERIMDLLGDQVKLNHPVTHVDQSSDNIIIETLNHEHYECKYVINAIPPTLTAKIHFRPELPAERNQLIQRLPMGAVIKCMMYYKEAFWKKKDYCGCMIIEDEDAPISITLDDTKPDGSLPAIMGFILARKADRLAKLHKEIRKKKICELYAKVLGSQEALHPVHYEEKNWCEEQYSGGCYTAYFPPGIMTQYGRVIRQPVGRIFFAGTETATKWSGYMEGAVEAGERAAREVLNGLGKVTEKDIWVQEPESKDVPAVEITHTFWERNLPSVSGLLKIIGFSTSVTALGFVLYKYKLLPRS

[5] = target: T3, Alpha-2A adrenergic receptor (Homo sapiens, UniProt P08913)
T3 sequence (P08913 whole entry): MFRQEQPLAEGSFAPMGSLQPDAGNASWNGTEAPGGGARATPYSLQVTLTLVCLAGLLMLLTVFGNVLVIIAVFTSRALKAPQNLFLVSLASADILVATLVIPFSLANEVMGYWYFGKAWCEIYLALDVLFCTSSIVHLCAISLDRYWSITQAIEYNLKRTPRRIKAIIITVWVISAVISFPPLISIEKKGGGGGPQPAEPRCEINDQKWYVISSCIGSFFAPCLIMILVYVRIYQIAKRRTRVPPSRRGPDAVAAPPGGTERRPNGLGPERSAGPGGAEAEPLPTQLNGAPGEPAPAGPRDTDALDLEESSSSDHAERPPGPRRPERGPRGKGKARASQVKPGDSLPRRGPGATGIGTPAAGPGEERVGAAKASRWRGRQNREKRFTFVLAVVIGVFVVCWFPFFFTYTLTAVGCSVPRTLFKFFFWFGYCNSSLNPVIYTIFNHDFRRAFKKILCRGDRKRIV

[6] = target: T4, Muscarinic acetylcholine receptor M2 (Homo sapiens, UniProt P08172)
T4 sequence (P08172 whole entry): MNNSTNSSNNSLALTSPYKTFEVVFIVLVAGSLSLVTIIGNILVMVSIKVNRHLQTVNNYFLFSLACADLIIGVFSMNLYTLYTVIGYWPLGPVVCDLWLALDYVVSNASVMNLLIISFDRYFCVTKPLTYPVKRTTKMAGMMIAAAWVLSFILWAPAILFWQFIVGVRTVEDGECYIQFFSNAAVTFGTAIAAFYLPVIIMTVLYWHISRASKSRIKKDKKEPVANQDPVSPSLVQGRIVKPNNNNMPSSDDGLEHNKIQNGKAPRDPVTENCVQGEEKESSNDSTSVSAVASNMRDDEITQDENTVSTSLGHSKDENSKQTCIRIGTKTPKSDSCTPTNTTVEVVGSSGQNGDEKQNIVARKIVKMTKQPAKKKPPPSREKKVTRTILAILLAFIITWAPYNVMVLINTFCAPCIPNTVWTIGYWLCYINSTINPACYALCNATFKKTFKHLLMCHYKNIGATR

[7] = target: Prostaglandin G/H synthase 1 (Homo sapiens, UniProt P23219); format: functional
Sequence of Prostaglandin G/H synthase 1 (P23219 whole entry): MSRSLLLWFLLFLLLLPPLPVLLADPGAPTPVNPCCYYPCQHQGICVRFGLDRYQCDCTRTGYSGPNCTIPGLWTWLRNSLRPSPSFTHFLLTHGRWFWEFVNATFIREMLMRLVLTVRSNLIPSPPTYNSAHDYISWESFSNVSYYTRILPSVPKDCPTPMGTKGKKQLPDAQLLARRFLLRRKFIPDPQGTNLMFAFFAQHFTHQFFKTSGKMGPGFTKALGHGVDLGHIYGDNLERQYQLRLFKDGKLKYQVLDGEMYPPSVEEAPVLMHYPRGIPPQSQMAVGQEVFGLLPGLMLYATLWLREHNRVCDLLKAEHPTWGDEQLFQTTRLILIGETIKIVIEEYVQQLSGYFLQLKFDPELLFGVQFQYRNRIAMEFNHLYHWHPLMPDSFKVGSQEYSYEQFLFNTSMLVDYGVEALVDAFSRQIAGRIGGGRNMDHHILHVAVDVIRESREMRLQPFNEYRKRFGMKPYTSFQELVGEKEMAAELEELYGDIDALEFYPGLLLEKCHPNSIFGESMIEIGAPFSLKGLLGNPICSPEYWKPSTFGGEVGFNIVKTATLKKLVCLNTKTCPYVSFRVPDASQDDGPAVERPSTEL

[8] = target: Sodium-dependent dopamine transporter (Homo sapiens, UniProt Q01959)
Sequence of Sodium-dependent dopamine transporter (Q01959 whole entry): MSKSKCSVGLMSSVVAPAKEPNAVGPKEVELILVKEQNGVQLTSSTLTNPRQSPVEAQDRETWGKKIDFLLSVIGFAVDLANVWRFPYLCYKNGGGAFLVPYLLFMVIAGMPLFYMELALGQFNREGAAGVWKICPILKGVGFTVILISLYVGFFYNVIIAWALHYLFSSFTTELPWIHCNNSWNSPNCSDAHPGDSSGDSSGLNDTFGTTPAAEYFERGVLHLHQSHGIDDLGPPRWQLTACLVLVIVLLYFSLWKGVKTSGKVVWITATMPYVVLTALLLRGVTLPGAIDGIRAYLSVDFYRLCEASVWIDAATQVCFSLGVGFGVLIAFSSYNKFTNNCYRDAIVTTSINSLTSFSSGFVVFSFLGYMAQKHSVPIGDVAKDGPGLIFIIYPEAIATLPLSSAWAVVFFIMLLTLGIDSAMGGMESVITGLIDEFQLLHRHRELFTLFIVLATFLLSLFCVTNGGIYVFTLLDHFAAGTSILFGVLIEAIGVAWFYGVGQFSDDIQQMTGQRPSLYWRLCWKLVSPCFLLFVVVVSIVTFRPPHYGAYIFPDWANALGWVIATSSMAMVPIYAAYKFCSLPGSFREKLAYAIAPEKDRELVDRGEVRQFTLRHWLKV

[9] = target: T5, Alpha-1A adrenergic receptor (Homo sapiens, UniProt P35348); format: functional, cell-based
T5 sequence (P35348 whole entry): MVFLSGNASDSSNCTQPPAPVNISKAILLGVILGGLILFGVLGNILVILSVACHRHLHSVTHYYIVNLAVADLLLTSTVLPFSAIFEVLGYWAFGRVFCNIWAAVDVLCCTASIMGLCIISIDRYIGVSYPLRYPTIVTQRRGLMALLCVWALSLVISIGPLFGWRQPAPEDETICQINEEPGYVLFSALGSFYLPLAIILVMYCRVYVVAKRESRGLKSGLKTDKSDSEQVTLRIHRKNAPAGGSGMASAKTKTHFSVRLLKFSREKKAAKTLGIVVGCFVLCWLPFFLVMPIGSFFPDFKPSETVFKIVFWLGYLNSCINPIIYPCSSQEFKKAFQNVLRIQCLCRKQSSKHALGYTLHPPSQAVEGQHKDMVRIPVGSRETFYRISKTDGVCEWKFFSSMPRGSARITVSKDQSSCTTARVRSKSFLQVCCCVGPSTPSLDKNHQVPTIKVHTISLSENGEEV

[10] = target: Voltage-gated inwardly rectifying potassium channel KCNH2 (Homo sapiens, UniProt Q12809); format: functional; details: read-out: AC50
Sequence of Voltage-gated inwardly rectifying potassium channel KCNH2 (Q12809 whole entry): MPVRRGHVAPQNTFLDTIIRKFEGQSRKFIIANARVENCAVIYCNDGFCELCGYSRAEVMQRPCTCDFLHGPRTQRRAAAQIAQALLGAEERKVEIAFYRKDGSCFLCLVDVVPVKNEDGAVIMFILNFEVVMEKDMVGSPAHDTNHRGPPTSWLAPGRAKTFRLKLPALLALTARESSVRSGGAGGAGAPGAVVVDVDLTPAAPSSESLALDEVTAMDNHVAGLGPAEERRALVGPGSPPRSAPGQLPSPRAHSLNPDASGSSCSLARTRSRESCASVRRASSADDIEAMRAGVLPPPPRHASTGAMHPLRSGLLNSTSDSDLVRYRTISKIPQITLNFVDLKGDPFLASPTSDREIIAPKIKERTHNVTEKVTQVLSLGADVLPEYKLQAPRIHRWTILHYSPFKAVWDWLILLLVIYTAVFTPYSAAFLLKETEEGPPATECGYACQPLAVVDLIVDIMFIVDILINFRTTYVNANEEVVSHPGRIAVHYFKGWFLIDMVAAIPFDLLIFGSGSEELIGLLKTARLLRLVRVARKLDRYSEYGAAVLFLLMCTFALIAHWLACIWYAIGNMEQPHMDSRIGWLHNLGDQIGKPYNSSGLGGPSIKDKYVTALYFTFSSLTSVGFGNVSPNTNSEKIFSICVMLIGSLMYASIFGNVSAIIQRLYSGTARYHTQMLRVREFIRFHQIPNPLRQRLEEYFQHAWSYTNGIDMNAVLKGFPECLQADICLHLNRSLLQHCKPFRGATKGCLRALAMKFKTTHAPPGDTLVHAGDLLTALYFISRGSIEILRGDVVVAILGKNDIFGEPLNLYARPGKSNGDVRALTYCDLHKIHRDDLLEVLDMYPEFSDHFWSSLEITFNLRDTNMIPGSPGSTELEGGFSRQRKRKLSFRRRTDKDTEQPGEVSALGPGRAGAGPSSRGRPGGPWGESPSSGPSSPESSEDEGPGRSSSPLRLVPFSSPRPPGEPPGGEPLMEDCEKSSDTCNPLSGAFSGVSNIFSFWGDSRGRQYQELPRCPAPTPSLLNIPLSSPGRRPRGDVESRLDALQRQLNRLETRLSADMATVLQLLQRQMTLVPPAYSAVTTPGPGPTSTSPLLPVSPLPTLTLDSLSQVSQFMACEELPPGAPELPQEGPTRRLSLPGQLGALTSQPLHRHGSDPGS
Note: assay procedure not described here.

SMILES: OC(c1ccccc1)(c1ccccc1)C12CC[N+](CCOCc3ccccc3)(CC1)CC2
- AC50 [1]: > 30 µM
- AC50 [2]: > 30 µM
- AC50 [3]: 15.6 µM
- AC50 [4]: > 30 µM
- AC50 [5]: > 30 µM
- AC50 [6]: 0.0044 µM
- AC50 [7]: > 30 µM
- AC50 [8]: 0.898 µM
- AC50 [9]: > 30 µM

SMILES: CCC(CC)(CC(=O)Nc1cccc(/C=C/c2nc(C3CCC3)cs2)c1)C(=O)O
- AC50 [1]: > 3 µM
- AC50 [2]: > 30 µM
- AC50 [3]: > 30 µM
- AC50 [4]: > 30 µM
- AC50 [5]: > 30 µM
- AC50 [6]: > 30 µM
- AC50 [7]: 26.2 µM
- AC50 [8]: > 30 µM
- AC50 [9]: > 3 µM
- AC50 [10]: > 30 µM

SMILES: CN1CCN(C2=Nc3ccccc3Sc3ccc(Cl)cc32)CC1 [CLOTHIAPINE]
- AC50 [1]: > 10 µM
- AC50 [2]: > 30 µM
- AC50 [3]: > 30 µM
- AC50 [4]: > 30 µM
- AC50 [5]: 3.47 µM
- AC50 [6]: 0.52 µM
- AC50 [7]: > 30 µM
- AC50 [8]: 3.62 µM
- AC50 [9]: 0.01 µM
- AC50 [10]: 4.1 µM

SMILES: CN(C)CC/C=C1\c2ccccc2CSc2ccccc21 [DOTHIEPIN]
- AC50 [10]: 1.5 µM

SMILES: CC[C@H]1CN2CCc3cc(OC)c(OC)cc3[C@@H]2C[C@@H]1C[C@H]1NCCc2cc(OC)c(OC)cc21 [EMETINE]
- AC50 [1]: > 30 µM
- AC50 [2]: > 30 µM
- AC50 [3]: > 30 µM
- AC50 [4]: > 30 µM
- AC50 [5]: 0.09 µM
- AC50 [6]: > 30 µM
- AC50 [7]: > 30 µM
- AC50 [8]: > 30 µM

SMILES: O=[N+]([O-])O[C@@H]1CO[C@H]2[C@@H]1OC[C@@H]2O [ISOSORBIDE MONONITRATE]
- AC50 [1]: > 30 µM
- AC50 [2]: > 30 µM
- AC50 [3]: > 30 µM
- AC50 [4]: > 30 µM
- AC50 [5]: > 30 µM
- AC50 [6]: > 30 µM
- AC50 [7]: > 30 µM
- AC50 [8]: > 30 µM
- AC50 [9]: > 30 µM
- AC50 [10]: > 30 µM

SMILES: Cc1cc(C)c(NC(=O)CN(CC(=O)O)CC(=O)O)c(C)c1Br [MEBROFENIN]
- AC50 [1]: > 30 µM
- AC50 [2]: > 30 µM
- AC50 [3]: > 30 µM
- AC50 [4]: > 30 µM
- AC50 [5]: > 30 µM
- AC50 [6]: > 30 µM
- AC50 [7]: > 30 µM
- AC50 [8]: > 30 µM
- AC50 [10]: > 30 µM

SMILES: COc1ccccc1N1CCN(CC(O)COc2cccc3ccccc23)CC1 (centres undefined) [NAFTOPIDIL]
- AC50 [1]: > 3 µM
- AC50 [2]: > 30 µM
- AC50 [3]: > 30 µM
- AC50 [4]: > 30 µM
- AC50 [5]: 0.29 µM
- AC50 [6]: > 30 µM
- AC50 [7]: > 30 µM
- AC50 [8]: 4.46 µM
- AC50 [10]: 0.87 µM

SMILES: COc1cc2nc(N3CCN(C(=O)c4ccco4)CC3)nc(N)c2cc1OC [PRAZOSIN]
- AC50 [1]: > 30 µM
- AC50 [2]: > 30 µM
- AC50 [3]: > 30 µM
- AC50 [4]: > 30 µM
- AC50 [6]: 13.3 µM
- AC50 [7]: > 30 µM
- AC50 [8]: 30 µM
- AC50 [10]: 3.73 µM
